Like-named read-outs stand apart in the source and are kept apart here.

Holding throughout (type): cell-based
One series has as its system HuH-7. The series can be described thus: Cytotoxicity secondary screen (IC50). Conditions: Homo sapiens, 48 h exposure, mean of triplicates, NE: no effect. How it is done:
(§1) Cell culture. Skin normal fibroblastic cells are purchased from Lonza (Basel, Switzerland), HuH-7, Caco-2, MDA-MB-231, HCT-116, PC3, MCF7 and NCI-H727 cancer cell lines were obtained from ATCC (American Type Culture Collection). Cells are grown at 37 °C, 5% CO2 in ATCC recommended media: DMEM for HuH-7, MDA-MB-231, MDA-MB-468 and fibroblast, EMEM for MCF7 and CaCo-2, McCoy’s for HCT-116 and RPMI for PC3 and NCI-H727. All culture media are supplemented by 10% of FBS, 1% of penicillin-streptomycin and 2 mM glutamine.
(§2) Both studies have been performed following the protocols described in a previous paper, see ref. [2].

For series [1], the system named is PC3. The series can be described thus: Cytotoxicity secondary screen (IC50). Particulars: Homo sapiens, PC-3; 48 h exposure, mean of triplicates; NE: no effect. How it is done: as §1, §2
The next series concerns normal human fibroblasts. Put plainly: Cytotoxicity secondary screen (IC50). Particulars: Fibroblast, 48 h exposure, mean of triplicates, NE: no effect, highest concentration tested 25 μM, read-out: IC50 Fibro. How it is done: as §1, §2
Series [2] has as its system Caco-2. Put plainly: Cytotoxicity secondary screen (IC50). Particulars: Homo sapiens, 48 h exposure, mean of triplicates, NE: no effect. How it is done:
(§3) Next, we performed a cytotoxicity screening of the nineteen molecules 4a–s, at 25 μM, investigating seven representative cancer cell lines: hepatocellular carcinoma HuH-7, colorectal adenocarcinoma CaCo-2, breast carcinoma MDA-MB-231 and MDA-MB-468, colorectal carcinoma HCT-116, prostate carcinoma PC3 and breast carcinoma MCF7. […] For details see: ref. [2] and Supporting Information File 1, Table S1.
as §1, §2

The next series has as its system HCT-116. The series can be described thus: Cytotoxicity secondary screen (IC50). Conditions: Homo sapiens, 48 h exposure, mean of triplicates, NE: no effect. How it is done: as §3, §1, §2
Series [3] deals with Caco-2. Put plainly: Cytotoxicity primary screen (single dose). Particulars: 48 h exposure, mean of triplicates. How it is done:
as §3, §1, §2
(§4) Table S1: Cytotoxicity studies (single dose at 25µM) of N-arylbenzo[h]quinazolin-2-amines 4a–s
(§5) The toxicity is expressed as the percentage of cell survival (from 100 % to 0 %) over DMSO control after 48 h exposure (mean of triplicates).
(§6) Effect of the solvent (DMSO) was studied at 0.25%.

In series [4] the test system is HuH7. The series can be described thus: Cytotoxicity primary screen (single dose). Particulars: Homo sapiens, Huh-7; single dose 25 μM, 48 h exposure, mean of triplicates; read-out: percentage of cell survival over DMSO control, HuH7. How it is done: as §3, §1, §2, §4, §5, §6
Another series has as its system HCT116. Put plainly: Cytotoxicity primary screen (single dose). Further details: viability: dose or concentration left out as unconfirmed. Particulars: Homo sapiens, HCT-116; single dose 25 μM, 48 h exposure, mean of triplicates; read-out: percentage of cell survival over DMSO control, HCT116. How it is done:
as §3, §1, §2, §4, §5, §6

Series [5] relates to MCF7. Put plainly: Cytotoxicity primary screen (single dose). Also on record: viability: dose or concentration left out as unconfirmed. Particulars: Homo sapiens, single dose 25 μM, 48 h exposure, mean of triplicates, read-out: percentage of cell survival over DMSO control, MCF7. How it is done: as §3, §1, §2, §4, §5, §6
For a further series, the system named is MDA231. The series can be described thus: Cytotoxicity primary screen (single dose). Conditions: Homo sapiens, MDA-MB-231, 48 h exposure, mean of triplicates, read-out: percentage of cell survival over DMSO control, MDA231; for viability at 25 µM: single dose 25 μM. Also on record: viability: dose or concentration left out as unconfirmed. How it is done:
as §3, §1, §2, §4, §5, §6

The next series deals with MDA468. The series can be described thus: Cytotoxicity primary screen (single dose). Also on record: viability: dose or concentration left out as unconfirmed. Conditions: 48 h exposure, mean of triplicates, read-out: percentage of cell survival over DMSO control, MDA468; for viability at 25 µM: single dose 25 μM. How it is done:
as §3, §1, §2, §4, §5, §6

Series [6] deals with PC3. The series can be described thus: Cytotoxicity primary screen (single dose). Further details: viability: dose or concentration left out as unconfirmed. Particulars: Homo sapiens, PC-3, 48 h exposure, mean of triplicates, read-out: percentage of cell survival over DMSO control, PC3; for viability at 25 µM: single dose 25 μM. How it is done:
as §3, §1, §2, §4, §5, §6

The test system of series [7] is seven representative tumor cell lines. Put plainly: Cytotoxicity IC50, summary over several cell lines. Particulars: read-out: IC50 (span over cell lines). How it is done: as §1, with “For details see: ref. [2] and Supporting Information File 1, Table S1. […] [table] Cell culture.” for “Cell culture.”, “mM glutamine. Both studies have been performed following the protocols described in a previous paper, see ref. [2].” for “mM glutamine.”

A further series concerns MDA-MB-231. The series can be described thus: Cytotoxicity secondary screen (IC50). Conditions: Homo sapiens, 48 h exposure, mean of triplicates, NE: no effect.
Another series relates to MDA-MB-468. The series can be described thus: Cytotoxicity secondary screen (IC50). Conditions: Homo sapiens, 48 h exposure, mean of triplicates, NE: no effect.
In series [8] the test system is MCF7. Put plainly: Cytotoxicity secondary screen (IC50). Conditions: Homo sapiens, 48 h exposure, mean of triplicates, NE: no effect.
The subject of series [9] is HuH7. The series can be described thus: Cytotoxicity primary screen (single dose). Particulars: Homo sapiens, Huh-7; 48 h exposure, mean of triplicates; read-out: percentage of cell survival over DMSO control, HuH7. Also on record: dose or concentration left out as unconfirmed.

For orientation: IC50 means the concentration at which inhibition is half-maximal. Regarding `Fc1cccc(Nc2ncc3ccc4ccccc4c3n2)c1` [Compound 4i, N-(3-fluorophenyl)benzo[h]quinazolin-2-amine], the IC50 in the series with HuH-7 is 17 µM; in the series with PC3 [1], 11 µM; in the series with normal human fibroblasts it was greater than 25 µM; with Caco-2 [2], 2 µM; with HCT-116 it was 6 µM; in series [7] (on Caco-2, MDA-MB-468, HCT-116 and MCF7), 2 to 6 µM. Besides, the half-maximal inhibitory concentration (IC50) in the series on MDA-MB-231 turned out to be 17 µM; in the series on MDA-MB-468, 4 µM; in the series on MCF7 [8], 3 µM. Moreover, the “percentage of cell survival over DMSO control, CaCo-2” value (“percentage of cell survival” for short) in the series with Caco-2 [3] (single dose 25 μM) was 34%. Further, the viability at 25 µM came to 60% in the series with HuH7 [4]; 11% in the series with HCT116; 59% with MCF7 [5]; 49% in the series on MDA231; 59% with MDA468; 36% in the series with PC3 [6].
Regarding `c1ccc(Nc2ncc3ccc4ccccc4c3n2)cc1` [Compound 4a, N-phenylbenzo[h]quinazolin-2-amine], the IC50 was 1.7 µM in the series with HuH-7; 34.5 µM in the series on PC3 [1]; greater than 25 µM in the series with normal human fibroblasts; 4.7 µM in the series with Caco-2 [2]; 4 µM with HCT-116; 1.7 to 6 µM in series [7] (against HuH-7, Caco-2, MDA-MB-468 and HCT-116 cells). Also, the IC50 in the series on MDA-MB-231 turned out to be 29 µM; in the series on MDA-MB-468, 6 µM; in the series on MCF7 [8] it was 13 µM. Besides, the “percentage of cell survival” value with Caco-2 [3] (single dose 25 μM) was 33%. The viability at 25 µM was 60% with HuH7 [4]; 48% with HCT116; 59% in the series with MCF7 [5]; 61% in the series on MDA231; 56% in the series on MDA468; 58% in the series on PC3 [6].
Turning to `Cc1ccc(Nc2ncc3ccc4ccccc4c3n2)cc1` [Compound 4d, N-(p-tolyl)benzo[h]quinazolin-2-amine], the IC50 in the series with HuH-7 was greater than 25 µM; in the series with PC3 [1], 30 µM; in the series with normal human fibroblasts, greater than 25 µM; in the series with Caco-2 [2], greater than 25 µM; in the series with HCT-116, 5 µM; in the series on MDA-MB-231 it was greater than 25 µM. In addition, the IC50 with MDA-MB-468 is 31 µM; in the series on MCF7 [8] it was greater than 25 µM. In addition, in the series on Caco-2 [3] (single dose 25 μM), the “percentage of cell survival” value stood at 63%. Further, the viability at 25 µM with HuH7 [4] amounted to 85%; with HCT116, 54%; with MCF7 [5], 61%; in the series on MDA231, 67%; in the series on MDA468 it was 72%; in the series on PC3 [6], 65%.
Take `COc1cccc2c1C(=O)c1c(O)c3c(c(O)c1C2=O)C[C@@](O)(C(=O)CO)C[C@@H]3O[C@H]1C[C@H](N)[C@H](O)[C@H](C)O1` [doxorubicin, reference compound]: the concentration for half-maximal inhibition (IC50) came to 0.03 µM with HuH-7; 0.06 µM in the series on PC3 [1]; 0.04 µM in the series with HCT-116; 0.03 µM in the series with MDA-MB-231; 0.03 µM in the series with MDA-MB-468; 0.07 µM with MCF7 [8]. In addition, the “percentage of cell survival” value in the series on Caco-2 [3] (reference compound at 0.025 M (so in the source)) turned out to be 59%. In addition, the viability worked out at 31% in the series with MDA231, 24% in the series with MDA468, 42% in the series on PC3 [6] and 59% with HuH7 [9].
On to `COc1ccccc1Nc1ncc2ccc3ccccc3c2n1` [Compound 4e, N-(2-methoxyphenyl)benzo[h]quinazolin-2-amine], for which the IC50 in the series with HuH-7 was greater than 25 µM; in the series on PC3 [1], greater than 25 µM; with normal human fibroblasts it was greater than 25 µM; in the series on Caco-2 [2] it was 20 µM; with HCT-116, 26 µM; with MDA-MB-231, 25 µM. Moreover, the IC50 in the series on MDA-MB-468 was determined as 25 µM; with MCF7 [8], 22 µM. Also, the “percentage of cell survival” value in the series on Caco-2 [3] (single dose 25 μM) amounted to 59%. The viability at 25 µM with HuH7 [4] was 55%; in the series on HCT116 it was 8%; with MCF7 [5], 82%; in the series with MDA231, 40%; with MDA468, 46%; in the series on PC3 [6] it was 21%.
As to `COc1cccc(Nc2ncc3ccc4ccccc4c3n2)c1` [Compound 4f, N-(3-methoxyphenyl)benzo[h]quinazolin-2-amine], the concentration for half-maximal inhibition (IC50) is 23 µM with HuH-7; 26 µM with PC3 [1]; greater than 25 µM in the series with normal human fibroblasts; 4.3 µM with Caco-2 [2]; 10 µM in the series with HCT-116; greater than 25 µM in the series on MDA-MB-231. In addition, the values for the half-maximal inhibitory concentration (IC50) in the series with MDA-MB-468 and with MCF7 [8] were 33 µM and greater than 25 µM, respectively. The “percentage of cell survival” value in the series on Caco-2 [3] (single dose 25 μM) was found to be 59%. Moreover, the viability at 25 µM is 59% in the series with HuH7 [4]; 29% in the series with HCT116; 78% in the series with MCF7 [5]; 77% with MDA231; 73% with MDA468; 54% in the series with PC3 [6].
As for `Cc1cccc(Nc2ncc3ccc4ccccc4c3n2)c1` [Compound 4c, N-(m-tolyl)benzo[h]quinazolin-2-amine], the half-maximal inhibitory concentration (IC50) was greater than 25 µM with HuH-7; greater than 25 µM in the series with PC3 [1]; greater than 25 µM with normal human fibroblasts; 28 µM in the series on Caco-2 [2]; 18 µM in the series on HCT-116; greater than 25 µM with MDA-MB-231. Further, the IC50 in the series with MDA-MB-468 worked out at 22 µM; in the series with MCF7 [8], 30 µM. Further, in the series on Caco-2 [3] (single dose 25 μM), the “percentage of cell survival” value was determined as 50%. In addition, the viability at 25 µM in the series with HuH7 [4] stood at 68%; in the series on HCT116 it was 52%; in the series with MCF7 [5], 50%; in the series with MDA231, 81%; in the series with MDA468, 65%; in the series on PC3 [6] it was 60%.
Turning to `Brc1cc(Br)cc(Nc2ncc3ccc4ccccc4c3n2)c1` [Compound 4o, N-(3,5-dibromophenyl)benzo[h]quinazolin-2-amine], the IC50 in the series with HuH-7 is 24 µM; in the series on PC3 [1] it was 21 µM; in the series with normal human fibroblasts it was greater than 25 µM; in the series with Caco-2 [2] it was 16 µM; in the series on HCT-116, 23 µM; in the series with MDA-MB-231, greater than 25 µM. Also, the 50% inhibitory concentration (IC50) in the series with MDA-MB-468 stood at 20 µM; in the series with MCF7 [8], 21 µM. The “percentage of cell survival” value in the series on Caco-2 [3] (single dose 25 μM) is given as 46%. For the same molecule, the viability at 25 µM with HuH7 [4] is 62%; in the series on HCT116, 27%; in the series with MCF7 [5], 85%; in the series with MDA231, 67%; in the series with MDA468, 47%; with PC3 [6], 38%.

The values above are taken from PMC11496704, “Synthesis and cytotoxicity studies of novel N-arylbenzo[h]quinazolin-2-amines” (Beilstein Journal of Organic Chemistry, 2024).
